According to patent US9326972B2, “Use of phenylmethimazoles, methimazole derivatives, and tautomeric cyclic thiones for the treatment of autoimmune/inflammatory diseases associated with toll-like receptor overexpression” (Ohio University, priority 2004, dated 2016):

What was measured:
ISRE = assay: ISRE-Luc reporter gene in FRTL-5 thyrocytes; format: cell-based, rat
Experimental: Cells were co-transfected with ISRE-Luc and pRLTk-Int and then treated without (none) or with Poly I:C (100 μg/ml), LPS (100 ng/ml), IL-1β (10 ng/ml) TNF-α (25 ng/ml), IFN-β (100 U/ml) or IFN-γ (1000 U/ml) in the presence of DMSO (−) or C10 for 6 hours. Data were obtained using the Dual Luciferase Assay system. The effect on the ISRE element is not duplicated by an NF-κB reporter plasmid despite the similarity of the two elements: ([…])5 (SEQ ID NO:3) vs. ([…])5 (SEQ ID NO:4), respectively. Data are representative of multiple experiments.
Plasmids for Reporter Gene Assays. Human IRF-3 was amplified from human cDNA and cloned into pCR 2.1 by the TOPO/TA (Invitrogen, Carlsbad, Calif.) cloning method, and then sequenced. IRF-3 was then excised by EcoRI digestion and subcloned into pCMV-BD (Stratagene, La Jolla, Calif.) for use in transactivation assays. To construct IFN-β-luc the human IFN-β promoter sequence was amplified from human genomic DNA (Clontech, Palo Alto, Calif.)) using Ex Taq™ Polymerase (Takara, Madison, Wis.). The PCR fragment contained human IFN-β promoter sequence from −125 to +34 relative to the transcription start site (+1) and incorporated KpnI and XhoI restriction sites at the 5′ and 3′ ends, respectively. The primers were as follows: hIFN-β (−125) KpnI (5′-[…]-3′) (SEQ ID NO:9) and hIFN-β (+34) XhoI (5′-[…]-3′). […]

NOD mice = assay: Glucosuria in NOD mice, infection/Coxsackie virus-induced Type 1 diabetes; format: in vivo, mouse
From the text: Mice were housed in germ free facilities, termed clean, or normal facilities where viral infections can occur, termed dirty. Animals showing urine Tes-Tape positivity greater than 1+ are considered positive and to have diabetes (L. S. Wicker, et al., Diabetes, 35:855-60 (1986)). In experiments in a “dirty” animal facility, C10 was effective in retarding the development of glucosuria in the NOD mice. When this was repeated in a “clean” or germ free laboratory, no effect of C10 was noted. What was noted, however, was the onset of glucosuria in the mice was much earlier in the animals maintained in “dirty” as opposed to “clean” mouse facilities. Further, in experiments with 8 mice in each group, even in a dirty facility, the injection of CVB4 Edwards Coxsackie virus advanced the expression of glucosuria (last two rows).
Induction of Diabetes and treatment with drugs. NOD/Lt female mice were from the Jackson Laboratory (Bar Harbor, Me.). All experiments were carried out in accordance with “Guide for Care and Use of Laboratory Animals” (NIH Publication No. 85-23, revised 1985). Mice were injected with 200 μl PBS or 5×10^5 PFU of the CVB4 Edwards Coxsackie virus strain ip (D. V. Serreze, et al., J Virol, 79:1045-52 (2005)). Mice were treated daily with i/p injections of C-10, MMI, 2.5% DMSO(C10 carrier control), or PBS (MMI carrier control). After injections, blood and urinary glucose levels were monitored weekly using Chemstrips (Boehringer Mannheim). Consecutive values of >240 mg/dl on two occasions >24 h apart were considered diagnostic of diabetes. Experiments used 8 mice/group in up to 3 experiments.

C57BL/6J mice = assay: LPS-induced endotoxic shock in C57BL/6J mice: survival and signs of shock; format: in vivo, mouse; settings: for Survival % of Control: Toxic Shock model, 10 animals, 1.5 days
[1] = Solubility and storage stability of C10 solutions; format: physicochemical
From the text: In the studies described in Table 5, C10 was formulated in DMSO and administered i.p. DMSO was used due to the low solubility of C10 in aqueous environments but can have well documented independent effects (M. S. Ivanovic, et al., Toxicology Letters, 147:153-159 (2004))]. […] To circumvent these issues, we used a proprietary cyclodextrin (CD) excipient that is approved by the FDA for use in humans to make an aqueous formulation of C10. […] In a test using LPS-induced toxic shock, oral excipient-solubilized C10, stored in diluted form at 4° C. for 8 weeks, was as effective in preventing death as was freshly made C10 i.p. in DMSO at the same 1 mg/kg dose.

[2] = + CVB4 Edwards Coxsackie virus, Dirty facility
[3] = LPS 20 mg/kg i/p, drug i/p 30 min before LPS, 8 mice per group

Cn1c(-c2ccccc2)cnc1S [Compound C10, 5-Phenylmethimazole]
ISRE activation by poly (I:C), LPS, IL-1β, TNF-α, IFN-β and IFN-γ (ISRE-Luc) (ISRE; FRTL-5, 6 hours): effective inhibitor
ISRE-Luc Relative Luciferase Activity % of Control (±15%), +C10 (ISRE; FRTL-5, Ligand None, 6 hours): 100 % of Control
glucosuria and death in Coxsackie's virus induced NOD mouse model of diabetes (NOD mice): effective in retarding glucosuria and death
Glucosuria % of Total, Week 1 (NOD mice; [2]): 0 % of Total
Glucosuria % of Total, Week 4 (NOD mice; [2]): 0 % of Total
Glucosuria % of Total, Week 8 (NOD mice; [2]): 20 % of Total
Glucosuria % of Total, Week 12 (NOD mice; [2]): 30 % of Total
Glucosuria % of Total, Week 1 (NOD mice; Clean facility): 0 % of Total
Glucosuria % of Total, Week 4 (NOD mice; Clean facility): 0 % of Total
Glucosuria % of Total, Week 8 (NOD mice; Clean facility): 0 % of Total
Glucosuria % of Total, Week 12 (NOD mice; Clean facility): 20 % of Total
Glucosuria % of Total, Week 16 (NOD mice; Clean facility): 40 % of Total
Glucosuria % of Total, Week 20 (NOD mice; Clean facility): 100 % of Total
Glucosuria % of Total, Week 1 (NOD mice; Dirty facility): 0 % of Total
Glucosuria % of Total, Week 4 (NOD mice; Dirty facility): 0 % of Total
Glucosuria % of Total, Week 8 (NOD mice; Dirty facility): 0 % of Total
Glucosuria % of Total, Week 12 (NOD mice; Dirty facility): 0 % of Total
survival / protection from death after LPS injection (C57BL/6J mice; C10 1 mg/kg i/p 30 minutes before LPS 20 mg/kg, 36 hours): 100%
survival (cases) (C57BL/6J mice; C10 0.1 to 1 mg/kg administered 30 min to 12 hours after lethal LPS injection): 100%
duration of survival observed (C57BL/6J mice; C10-treated LPS mice, as long as observed): ≥ 4 weeks
survival (C57BL/6J mice; C10 daily doses of 0.1 or 1 mg/kg, 12 hours after challenge with LPS): 100%
Number of surviving mice, 6 hrs (C57BL/6J mice; [3]): 8
Number of surviving mice, 12 hrs (C57BL/6J mice; [3]): 8
Signs of shock at 12 hours, % of Animals (C57BL/6J mice; LPS-challenged mice): 100 % of Animals
prevention of death vs freshly made C10 i.p. in DMSO (C57BL/6J mice; LPS-induced toxic shock, oral excipient-solubilized C10 stored diluted at 4° C. for 8 weeks, 1 mg/kg): as effective
Survival % of Control (C57BL/6J mice; 1 mg/kg, Ip diluted & stored in DMSO 1 wk): 0%
Survival % of Control (C57BL/6J mice; 1 mg/kg, Ip freshly diluted in DMSO): 100%
Survival % of Control (C57BL/6J mice; 1 mg/kg, Oral diluted & stored in excipient 6 wks): 100%
Survival % of Control (C57BL/6J mice; 1 mg/kg, Oral stored in excipient 1 week): 100%
solubility in aqueous environments [1]: low
stability of C10 solubilized in DMSO and diluted to a working concentration [1]: not stable for prolonged periods of time
activity of C10 diluted in DMSO and stored in diluted form ([1]; stored at either 4° C. or −70° C., in vitro or in vivo): inactive
